Activity calls are given as the source filed them. The calls are words filed in the database; no cut-off is given here.
Assays:
Cholinesterase = Cholinesterase (Equus caballus, UniProt P81908)
Description: Inhibition of equine serum BChE using S-butyrylthiocholine iodide as substrate preincubated for 6 mins prior to substrate addition measured at 60 to 180 seconds by Ellman's method

Acetylcholinesterase [1] = target: T1, Acetylcholinesterase (Electrophorus electricus, UniProt O42275)
Description: Inhibition of electric eel AChE using acetylthiocholine iodide as substrate preincubated for 6 mins prior to substrate addition measured at 60 to 180 seconds by Ellman's method

[2] = target: Amyloid-beta precursor protein (Homo sapiens) (UniProt P05067); details: at 20 µM
[3] = Neurotoxicity in human SH-SY5Y cells at 50 uM after 24 hrs by MTT assay relative to control; assay type: toxicity, cell-based
[4] = Neurotoxicity in human SH-SY5Y cells at 25 uM after 24 hrs by MTT assay relative to control; assay type: toxicity, cell-based
[5] = Neurotoxicity in human SH-SY5Y cells at 10 uM after 24 hrs by MTT assay relative to control; assay type: toxicity, cell-based
[6] = Neurotoxicity in human SH-SY5Y cells at 5 uM after 24 hrs by MTT assay relative to control; assay type: toxicity, cell-based; details: read-out: Activity
[7] = Neurotoxicity in human SH-SY5Y cells at 1 uM after 24 hrs by MTT assay relative to control; assay type: toxicity, cell-based
[8] = Metal chelating activity assessed as compound-Cu2+ complex formation at 25 uM by UV-vis spectrophotometric analysis; assay type: functional
Acetylcholinesterase [9] = target: T1, Acetylcholinesterase; assay: Competitive inhibition of electric eel AChE using acetylthiocholine as substrate by Lineweaver-Burk plot analysis
[10] = Metal chelating activity assessed as compound-Fe2+ complex formation at 25 uM by UV-vis spectrophotometric analysis; assay type: functional

Chain of Cholinesterase (P81908 whole entry): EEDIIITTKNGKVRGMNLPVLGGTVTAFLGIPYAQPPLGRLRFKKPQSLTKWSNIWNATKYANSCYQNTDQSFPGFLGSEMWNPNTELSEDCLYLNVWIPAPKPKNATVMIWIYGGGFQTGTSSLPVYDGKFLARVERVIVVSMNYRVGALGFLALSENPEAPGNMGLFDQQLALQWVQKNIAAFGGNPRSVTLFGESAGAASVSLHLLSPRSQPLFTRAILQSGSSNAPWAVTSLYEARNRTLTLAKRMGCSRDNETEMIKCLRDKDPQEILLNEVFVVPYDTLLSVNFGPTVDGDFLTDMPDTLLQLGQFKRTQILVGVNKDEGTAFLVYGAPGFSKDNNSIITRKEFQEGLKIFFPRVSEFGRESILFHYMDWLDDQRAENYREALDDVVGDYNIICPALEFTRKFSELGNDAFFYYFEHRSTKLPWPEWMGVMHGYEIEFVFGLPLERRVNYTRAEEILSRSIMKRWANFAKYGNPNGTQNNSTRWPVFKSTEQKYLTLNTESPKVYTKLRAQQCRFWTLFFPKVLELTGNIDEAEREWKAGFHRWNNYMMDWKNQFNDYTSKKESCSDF
Chain of Amyloid-beta precursor protein (Homo sapiens) (P05067 whole entry): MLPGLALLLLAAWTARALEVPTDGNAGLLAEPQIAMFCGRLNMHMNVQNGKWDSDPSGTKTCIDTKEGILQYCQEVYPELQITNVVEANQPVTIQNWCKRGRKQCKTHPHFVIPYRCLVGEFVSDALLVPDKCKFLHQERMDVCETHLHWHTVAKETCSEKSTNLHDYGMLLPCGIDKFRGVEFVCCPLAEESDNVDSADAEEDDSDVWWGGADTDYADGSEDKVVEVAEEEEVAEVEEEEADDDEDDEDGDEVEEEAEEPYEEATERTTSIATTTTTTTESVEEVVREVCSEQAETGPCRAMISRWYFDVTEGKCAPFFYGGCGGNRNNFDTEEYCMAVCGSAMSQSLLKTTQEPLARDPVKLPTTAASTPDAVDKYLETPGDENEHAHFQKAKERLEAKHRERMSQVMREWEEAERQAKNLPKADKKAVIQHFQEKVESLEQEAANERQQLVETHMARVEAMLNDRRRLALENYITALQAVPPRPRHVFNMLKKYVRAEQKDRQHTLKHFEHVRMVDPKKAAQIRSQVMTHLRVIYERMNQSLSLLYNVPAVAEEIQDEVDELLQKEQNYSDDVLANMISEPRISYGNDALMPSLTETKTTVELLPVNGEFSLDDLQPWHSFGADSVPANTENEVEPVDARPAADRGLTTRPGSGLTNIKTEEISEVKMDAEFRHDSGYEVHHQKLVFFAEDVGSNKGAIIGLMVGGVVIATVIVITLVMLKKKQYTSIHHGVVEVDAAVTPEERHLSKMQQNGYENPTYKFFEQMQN
T1 sequence (O42275 whole entry): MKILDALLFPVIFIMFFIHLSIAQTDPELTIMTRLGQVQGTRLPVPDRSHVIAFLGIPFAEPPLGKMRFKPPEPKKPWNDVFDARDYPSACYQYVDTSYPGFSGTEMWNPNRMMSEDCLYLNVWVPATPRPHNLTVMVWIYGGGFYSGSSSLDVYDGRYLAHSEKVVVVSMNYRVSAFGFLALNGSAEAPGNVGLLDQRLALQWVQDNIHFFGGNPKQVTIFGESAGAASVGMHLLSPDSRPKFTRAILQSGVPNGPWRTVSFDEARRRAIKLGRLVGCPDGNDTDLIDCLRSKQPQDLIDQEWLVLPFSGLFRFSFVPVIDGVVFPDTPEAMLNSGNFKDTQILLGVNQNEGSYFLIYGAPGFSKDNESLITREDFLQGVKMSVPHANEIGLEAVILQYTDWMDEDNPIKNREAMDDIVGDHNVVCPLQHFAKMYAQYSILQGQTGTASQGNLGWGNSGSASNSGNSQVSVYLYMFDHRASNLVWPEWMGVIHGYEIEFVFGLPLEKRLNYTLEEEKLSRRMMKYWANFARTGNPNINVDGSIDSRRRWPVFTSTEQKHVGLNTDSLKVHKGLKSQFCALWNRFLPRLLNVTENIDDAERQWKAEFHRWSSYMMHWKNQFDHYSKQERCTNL

Row | SMILES | IC50 (Cholinesterase) | IC50 (Acetylcholinesterase [1]) | inhibition [2] | further results
1 | O=C(CN1CCN(CCCCCOc2ccc3c(-c4ccccc4)cc(=O)oc3c2)CC1)Nc1c2c(nc3ccccc13)CCCC2 | 1.27 µM | 1.58 µM | 29.5% | –
2 | Cc1cc(=O)oc2cc(OCCCN3CCN(CC(=O)Nc4c5c(nc6ccccc46)CCCC5)CC3)ccc12 | 0.628 µM | 0.13 µM | 67.5% | –
3 | Cc1cc(=O)oc2cc(OCCCCN3CCN(CC(=O)Nc4c5c(nc6ccccc46)CCCC5)CC3)ccc12 | 0.147 µM | 0.187 µM | 52.7% | –
4 | COc1cc(=O)oc2cc(OCCN3CCN(CC(=O)Nc4c5c(nc6ccccc46)CCCC5)CC3)ccc12 | 5.14 µM | 0.15 µM | 21.6% | –
5 | O=C(CN1CCN(CCCCOc2ccc3c(-c4ccccc4)cc(=O)oc3c2)CC1)Nc1c2c(nc3ccccc13)CCCC2 | 1.82 µM | 1.11 µM | 28.6% | –
6 | Cc1cc(=O)oc2cc(OCCCCCN3CCN(CC(=O)Nc4c5c(nc6ccccc46)CCCC5)CC3)ccc12 | 0.164 µM | 0.333 µM | 59.8% | –
7 | O=C(CN1CCNCC1)Nc1c2c(nc3ccccc13)CCCC2 | 22 µM | 145 µM | 30.3% | –
8 | Cc1cc(=O)oc2cc(OCCCCCCN3CCN(CC(=O)Nc4c5c(nc6ccccc46)CCCC5)CC3)ccc12 | 0.099 µM | 0.398 µM | 57.6% | –
9 | Cc1cc(=O)oc2cc(O)ccc12 [HYMECROMONE] | > 500 µM | 167 µM | 21.5% | –
10 | COc1cc(/C=C/C(=O)CC(=O)/C=C/c2ccc(O)c(OC)c2)ccc1O | – | – | 42.4% | –
11 | COc1cc(=O)oc2cc(OCCCCCN3CCN(CC(=O)Nc4c5c(nc6ccccc46)CCCC5)CC3)ccc12 | 0.73 µM | 0.357 µM | 30% | –
12 | COc1cc(=O)oc2cc(OCCCN3CCN(CC(=O)Nc4c5c(nc6ccccc46)CCCC5)CC3)ccc12 | 1.83 µM | 0.166 µM | 34.9% | –
13 | Cc1cc(=O)oc2cc(OCCN3CCN(CC(=O)Nc4c5c(nc6ccccc46)CCCC5)CC3)ccc12 | 0.234 µM | 0.092 µM | – | Activity [3]: 91.5%; Activity [4]: 93.6%; Activity [5]: 104.3%; viability at 24 h, 5 µM [6]: 94.7%; Activity [7]: 96.6%; Activity [8]: Active; Ki (Acetylcholinesterase [9]): 0.081 µM; Activity [10]: Active
14 | O=C(CN1CCN(CCCOc2ccc3ccc(=O)oc3c2)CC1)Nc1c2c(nc3ccccc13)CCCC2 | 0.44 µM | 0.133 µM | 55.1% | –
15 | COc1cc(=O)oc2cc(OCCCCN3CCN(CC(=O)Nc4c5c(nc6ccccc46)CCCC5)CC3)ccc12 | 3.63 µM | 0.237 µM | 22.1% | –
16 | O=C(CN1CCN(CCCOc2ccc3c(-c4ccccc4)cc(=O)oc3c2)CC1)Nc1c2c(nc3ccccc13)CCCC2 | 3.16 µM | 0.887 µM | 28.2% | –
17 | O=C(CN1CCN(CCCCCCOc2ccc3ccc(=O)oc3c2)CC1)Nc1c2c(nc3ccccc13)CCCC2 | 0.21 µM | 0.646 µM | 57.1% | –
18 | O=c1cc(-c2ccccc2)c2ccc(O)cc2o1 | > 500 µM | 258 µM | 27.1% | –
19 | O=c1ccc2ccc(O)cc2o1 | – | – | 30.5% | –
20 | O=C(CN1CCN(CCOc2ccc3c(-c4ccccc4)cc(=O)oc3c2)CC1)Nc1c2c(nc3ccccc13)CCCC2 | 1.51 µM | 0.373 µM | 27.2% | –
21 | COc1cc(=O)oc2cc(OCCCCCCN3CCN(CC(=O)Nc4c5c(nc6ccccc46)CCCC5)CC3)ccc12 | 1.78 µM | 0.993 µM | 31.9% | –
22 | O=C(CN1CCN(CCCCCOc2ccc3ccc(=O)oc3c2)CC1)Nc1c2c(nc3ccccc13)CCCC2 | 0.215 µM | 0.31 µM | 52.7% | –
23 | O=C(CN1CCN(CCCCCCOc2ccc3c(-c4ccccc4)cc(=O)oc3c2)CC1)Nc1c2c(nc3ccccc13)CCCC2 | 4.51 µM | 2.36 µM | 27.5% | –
24 | COc1cc(=O)oc2cc(O)ccc12 | > 500 µM | 208 µM | 22.4% | –
25 | O=C(CN1CCN(CCCCOc2ccc3ccc(=O)oc3c2)CC1)Nc1c2c(nc3ccccc13)CCCC2 | 0.309 µM | 0.169 µM | 57% | –
26 | O=C(CN1CCN(CCOc2ccc3ccc(=O)oc3c2)CC1)Nc1c2c(nc3ccccc13)CCCC2 | 0.493 µM | 0.15 µM | 59% | –
